Assay results: US20230085307A1, “PYRIDAZINONE COMPOUND AND HERBICIDE” (NISSAN CHEMICAL CORPORATION, priority 2019, published 2023)

Columns and labels:
late watergrass [1] = test: Test Example 1: herbicidal activity, application before weed generation under submerged conditions (Table 16, symbol A); assay type: in vivo, late watergrass (Echinochloa oryzicola); settings: 320 g/ha applied herbicide
In short: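 Emulsion formulation, water-diluted to set dose, was put onto the flooded surface (4 cm depth, alluvial soil) the same day weeds were sown and 2.5-leaf rice transplanted. After 3 weeks at 25-30 °C under glass, each species was rated 0 (≤5% kill) to 5 (≥90% kill).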

late watergrass [2] = test: Test Example 2: herbicidal activity, application during weed generation under submerged conditions (Table 17, symbol A); assay type: in vivo, late watergrass (Echinochloa oryzicola); settings: AAH 320 g/ha; application during weed generation, submerged conditions
In short: (§1)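 Mixed weed seedlings in alluvial soil under a 4 cm water layer, greenhouse-grown at 25–30° C. Compound given as a diluted emulsion into the floodwater at the 1–2 leaf stage; response graded after three weeks.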

Japanese bulrush = test: Test Example 2: herbicidal activity, application during weed generation under submerged conditions (Table 17, symbol B); assay type: in vivo, Japanese bulrush (Schoenoplectus juncoides); settings: AAH 320 g/ha; application during weed generation, submerged conditions
In short: as §1

barnyard grass = test: Test Example 3: herbicidal effect by foliage application, Wagner pot (Table 18, symbol H); assay type: in vivo, barnyard grass (Echinochloa crus-galli); settings: for herbicidal effect on H (barnyard grass), rating 0-5: 320 g/ha
In short: (§2)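 Plants were sown in alluvial soil held under 0.1–0.5 cm standing water and grown 14 days in a greenhouse at 25–30 °C. An emulsifiable formulation, water-diluted to the set dose, was then sprayed onto the foliage, and effects were scored three weeks later using previously defined criteria.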

Chinese sprangletop = test: Test Example 3: herbicidal effect by foliage application, Wagner pot (Table 18, symbol D); assay type: in vivo, chinese sprangletop (Leptochloa chinensis); settings: for herbicidal effect on D (Chinese sprangletop), rating 0-5: 320 g/ha
In short: as §2

southern crabgrass [3] = test: Test Example 4: herbicidal effect by soil treatment (Table 19, symbol F); assay type: in vivo, southern crabgrass (Digitaria ciliaris); settings: for herbicidal effect rating, F: southern crabgrass: 320 g/ha
In short: (§3)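 Soil-surface application: an emulsion agent diluted with water to the predetermined dose is sprayed uniformly over seeds lying under roughly 1.5 cm of sterilized diluvial soil. Boxes stay in a greenhouse at 25° C. to 30° C. Three weeks later, each species is graded on previously defined criteria.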

blackgrass = test: Test Example 4: herbicidal effect by soil treatment (Table 19, symbol J); assay type: in vivo, blackgrass (Alopecurus myosuroides); settings: for herbicidal effect rating, J: blackgrass: 320 g/ha
In short: as §3

Italian ryegrass [4] = test: Test Example 4: herbicidal effect by soil treatment (Table 19, symbol K); assay type: in vivo, Italian ryegrass (Lolium multiflorum); settings: for herbicidal effect rating, K: Italian ryegrass: 320 g/ha
In short: as §3

windgrass [5] = test: Test Example 4: herbicidal effect by soil treatment (Table 19, symbol L); assay type: in vivo, windgrass (Apera spica-venti); settings: for herbicidal effect rating, L: windgrass: 320 g/ha
In short: as §3

velvetleaf = test: Test Example 4: herbicidal effect by soil treatment (Table 19, symbol M); assay type: in vivo, velvetleaf (Abutilon theophrasti); settings: for herbicidal effect rating, M: velvetleaf: 320 g/ha
In short: as §3

lambsquarters [6] = test: Test Example 4: herbicidal effect by soil treatment (Table 19, symbol O); assay type: in vivo, lambsquarters (Chenopodium album); settings: for herbicidal effect rating, O: lambsquarters: 320 g/ha
In short: as §3

persian speedwell [7] = test: Test Example 4: herbicidal effect by soil treatment (Table 19, symbol R); assay type: in vivo, Persian speedwell (Veronica persica); settings: for herbicidal effect rating, R: persian speedwell: 320 g/ha
In short: as §3

southern crabgrass [8] = test: Test Example 5: herbicidal effect by foliage application, plastic box (Table 20, symbol F); assay type: in vivo, southern crabgrass (Digitaria ciliaris); settings: foliage application, 320 g/ha; for effect on southern crabgrass (F): 3 weeks after application; for herbicidal effect on F: southern crabgrass: evaluated three weeks after application
In short: (§4)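 Sow seeds spot-wise in sterilized diluvial soil; cover with ~1.5 cm soil. Grow 14 days in greenhouse, 25° C. to 30° C. Spray foliage with emulsion diluted to predetermined amount. Rate effect after 3 weeks.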

Italian ryegrass [9] = test: Test Example 5: herbicidal effect by foliage application, plastic box (Table 20, symbol K); assay type: in vivo, Italian ryegrass (Lolium multiflorum); settings: foliage application, 320 g/ha; for effect on Italian ryegrass (K): 3 weeks after application; for herbicidal effect on K: Italian ryegrass: evaluated three weeks after application
In short: as §4

windgrass [10] = test: Test Example 5: herbicidal effect by foliage application, plastic box (Table 20, symbol L); assay type: in vivo, windgrass (Apera spica-venti); settings: foliage application, 320 g/ha; for effect on windgrass (L): 3 weeks after application; for herbicidal effect on L: windgrass: evaluated three weeks after application
In short: as §4

lambsquarters [11] = test: Test Example 5: herbicidal effect by foliage application, plastic box (Table 20, symbol O); assay type: in vivo, lambsquarters (Chenopodium album); settings: foliage application, 320 g/ha; for effect on lambsquarters (O): 3 weeks after application; for herbicidal effect on O: lambsquarters: evaluated three weeks after application
In short: as §4

persian speedwell [12] = test: Test Example 5: herbicidal effect by foliage application, plastic box (Table 20, symbol R); assay type: in vivo, Persian speedwell (Veronica persica); settings: foliage application, 320 g/ha; for effect on persian speedwell (R): 3 weeks after application; for herbicidal effect on R: persian speedwell: evaluated three weeks after application
In short: as §4

[13] = amount of applied herbicide 320 g/ha

Row | SMILES | Herbicidal effect on A: late watergrass (grade 0-5) (late watergrass [1]) | herbicidal effect rating, A: late watergrass (late watergrass [2]) | herbicidal effect rating, B: Japanese bulrush (Japanese bulrush) | herbicidal effect on H (barnyard grass), rating 0-5 (barnyard grass) | herbicidal effect on D (Chinese sprangletop), rating 0-5 (Chinese sprangletop) | herbicidal effect rating, F: southern crabgrass (southern crabgrass [3]) | herbicidal effect rating, J: blackgrass (blackgrass) | herbicidal effect rating, K: Italian ryegrass (Italian ryegrass [4]) | herbicidal effect rating, L: windgrass (windgrass [5]) | herbicidal effect rating, M: velvetleaf (velvetleaf) | herbicidal effect rating, O: lambsquarters (lambsquarters [6]) | herbicidal effect rating, R: persian speedwell (persian speedwell [7]) | effect on southern crabgrass (F) (southern crabgrass [8]) | effect on Italian ryegrass (K) (Italian ryegrass [9]) | effect on windgrass (L) (windgrass [10]) | effect on lambsquarters (O) (lambsquarters [11]) | effect on persian speedwell (R) (persian speedwell [12]) | herbicidal effect on F: southern crabgrass (southern crabgrass [8]) | herbicidal effect on K: Italian ryegrass (Italian ryegrass [9]) | herbicidal effect on L: windgrass (windgrass [10]) | other results
1 | CCCCOc1ccc(-c2sc3ccc(F)cc3c2-c2c(OC(=O)CCC)c(C)nn(C)c2=O)cc1 [2-037] | 3 (Herbicidal rate of 40% or more and less than 70%) | 0 (Herbicidal rate of 5% or less (almost no effect)) | 1 (Herbicidal rate of 5% or more and less than 20%) | 4 (Herbicidal rate of 70% or more and less than 90%) | 2 (Herbicidal rate of 20% or more and less than 40%) | 2 (Herbicidal rate of 20% or more and less than 40%) | 0 (Herbicidal rate of 5% or less (almost no effect)) | 0 (Herbicidal rate of 5% or less (almost no effect)) | 0 (Herbicidal rate of 5% or less (almost no effect)) | 4 (Herbicidal rate of 70% or more and less than 90%) | 2 (Herbicidal rate of 20% or more and less than 40%) | 3 (Herbicidal rate of 40% or more and less than 70%) | 2 (Herbicidal rate of 20% or more and less than 40%) | 0 (Herbicidal rate of 5% or less (almost no effect)) | 0 (Herbicidal rate of 5% or less (almost no effect)) | 4 (Herbicidal rate of 70% or more and less than 90%) | 5 (Herbicidal rate of 90% or more (almost completely withered)) | – | – | – | –
2 | Cc1nn(C)c(=O)c(-c2c(-c3ccc(C#N)cc3)sc3ccc(Cl)cc23)c1O [2-112] | 0 (Herbicidal rate of 5% or less (almost no effect)) | 3 (Herbicidal rate of 40% or more and less than 70%) | 0 (Herbicidal rate of 5% or less (almost no effect)) | – | – | – | – | – | – | – | – | – | – | – | – | – | – | 4 (Herbicidal rate of 70% or more and less than 90%) | 5 (Herbicidal rate of 90% or more (almost completely withered)) | 5 (Herbicidal rate of 90% or more (almost completely withered)) | herbicidal effect on H: barnyard grass (barnyard grass; [13]): 5 (Herbicidal rate of 90% or more (almost completely withered)); herbicidal effect on D: Chinese sprangletop (Chinese sprangletop; [13]): 4 (Herbicidal rate of 70% or more and less than 90%); F: southern crabgrass, herbicidal effect rating (southern crabgrass [3]; [13]): 3 (Herbicidal rate of 40% or more and less than 70%); J: blackgrass, herbicidal effect rating (blackgrass; [13]): 3 (Herbicidal rate of 40% or more and less than 70%); K: Italian ryegrass, herbicidal effect rating (Italian ryegrass [4]; [13]): 5 (Herbicidal rate of 90% or more (almost completely withered)); L: windgrass, herbicidal effect rating (windgrass [5]; [13]): 5 (Herbicidal rate of 90% or more (almost completely withered)); M: velvetleaf, herbicidal effect rating (velvetleaf; [13]): 4 (Herbicidal rate of 70% or more and less than 90%); O: lambsquarters, herbicidal effect rating (lambsquarters [6]; [13]): 5 (Herbicidal rate of 90% or more (almost completely withered)); R: persian speedwell, herbicidal effect rating (persian speedwell [7]; [13]): 5 (Herbicidal rate of 90% or more (almost completely withered)); herbicidal effect on O: lambsquarters (lambsquarters [11]): 4 (Herbicidal rate of 70% or more and less than 90%); herbicidal effect on R: persian speedwell (persian speedwell [12]): 5 (Herbicidal rate of 90% or more (almost completely withered))
3 | COCCOc1ccc(-c2sc3ccc(F)cc3c2-c2c(O)c(C)nn(C)c2=O)cc1 [2-056] | 3 (Herbicidal rate of 40% or more and less than 70%) | 3 (Herbicidal rate of 40% or more and less than 70%) | 3 (Herbicidal rate of 40% or more and less than 70%) | 5 (Herbicidal rate of 90% or more (almost completely withered)) | 5 (Herbicidal rate of 90% or more (almost completely withered)) | 5 (Herbicidal rate of 90% or more (almost completely withered)) | 0 (Herbicidal rate of 5% or less (almost no effect)) | 0 (Herbicidal rate of 5% or less (almost no effect)) | 0 (Herbicidal rate of 5% or less (almost no effect)) | 5 (Herbicidal rate of 90% or more (almost completely withered)) | 5 (Herbicidal rate of 90% or more (almost completely withered)) | 5 (Herbicidal rate of 90% or more (almost completely withered)) | – | – | – | – | – | 5 (Herbicidal rate of 90% or more (almost completely withered)) | 4 (Herbicidal rate of 70% or more and less than 90%) | 4 (Herbicidal rate of 70% or more and less than 90%) | herbicidal effect on O: lambsquarters (lambsquarters [11]): 5 (Herbicidal rate of 90% or more (almost completely withered)); herbicidal effect on R: persian speedwell (persian speedwell [12]): 5 (Herbicidal rate of 90% or more (almost completely withered))
4 | CCCC(=O)Oc1c(C)nn(C)c(=O)c1-c1c(-c2ccc(CC)cc2)sc2ccc(F)cc12 [2-016] | 5 (Herbicidal rate of 90% or more (almost completely withered)) | 3 (Herbicidal rate of 40% or more and less than 70%) | 4 (Herbicidal rate of 70% or more and less than 90%) | 5 (Herbicidal rate of 90% or more (almost completely withered)) | 5 (Herbicidal rate of 90% or more (almost completely withered)) | 0 (Herbicidal rate of 5% or less (almost no effect)) | 2 (Herbicidal rate of 20% or more and less than 40%) | 3 (Herbicidal rate of 40% or more and less than 70%) | 1 (Herbicidal rate of 5% or more and less than 20%) | 3 (Herbicidal rate of 40% or more and less than 70%) | 5 (Herbicidal rate of 90% or more (almost completely withered)) | 4 (Herbicidal rate of 70% or more and less than 90%) | 0 (Herbicidal rate of 5% or less (almost no effect)) | 5 (Herbicidal rate of 90% or more (almost completely withered)) | 5 (Herbicidal rate of 90% or more (almost completely withered)) | 5 (Herbicidal rate of 90% or more (almost completely withered)) | 5 (Herbicidal rate of 90% or more (almost completely withered)) | – | – | – | –
